Source: patent US11352322B2, “Cyclopropyl-amide compounds as dual LSD1/HDAC inhibitors” (Jubilant Epicore LLC, priority 2016, dated 2022)
Counter-ions that a name gives are not always drawn.

Experiments:
[1] = molecular target: HDAC6 human recombinant enzyme (Homo sapiens (Human), UniProt Q9UBN7); test: Histone Deacetylase Assay (BPS Biosciences), HDAC6; type: biochemical
Text: Histone Deacetylase Assay (BPS Biosciences)
Histone deacetylase assay was done as per manufacturer's instructions.

[2] = test system: MM1S; test: Anticancer activity: Alamar Blue assay, MM1S; type: cell-based; settings: Homo sapiens, MM1.S, read-out: MM1S EC50
Method: Cells were seeded at 5000 cells/per well in 96-well tissue culture plate and incubated at 37° C./5% CO2. After 16-24 hours, fresh media was added to the wells. Compounds were then (1% DMSO conc.) added to the cells at 10 concentrations ranging from 10-0.0005 uM prepared in 3-fold serial dilutions. Cells were incubated for 68-72 h at 37° C./5% CO2. Alamar Blue™ reagent was added and incubated for 1-3 hours at 37° C./5% CO2. Plates were read on fluorescence reader at 540 nm excitation, 590 nm emission wave lengths.

[3] = Metabolic stability in liver microsomes, HLM; settings: 1 μM, NADPH
Method: (§1) The microsomal suspension was prepared by adding liver microsomes to 100 mM potassium phosphate buffer (pH7.4) to give a final protein concentration of 0.5 mg/mL. The stock solution of NCE (10 mM in DMSO) was added to the microsomes to provide a final concentration of 1 μM. […] Samples were vortexed and centrifuged at 5,000 rpm for 10 min to remove proteins. Supernatant were analyzed on LC-MS/MS.

[4] = Metabolic stability in liver microsomes, MLM; settings: 1 μM, NADPH
Method: as §1

HDAC6 human recombinant enzyme, sequence (Q9UBN7 whole entry): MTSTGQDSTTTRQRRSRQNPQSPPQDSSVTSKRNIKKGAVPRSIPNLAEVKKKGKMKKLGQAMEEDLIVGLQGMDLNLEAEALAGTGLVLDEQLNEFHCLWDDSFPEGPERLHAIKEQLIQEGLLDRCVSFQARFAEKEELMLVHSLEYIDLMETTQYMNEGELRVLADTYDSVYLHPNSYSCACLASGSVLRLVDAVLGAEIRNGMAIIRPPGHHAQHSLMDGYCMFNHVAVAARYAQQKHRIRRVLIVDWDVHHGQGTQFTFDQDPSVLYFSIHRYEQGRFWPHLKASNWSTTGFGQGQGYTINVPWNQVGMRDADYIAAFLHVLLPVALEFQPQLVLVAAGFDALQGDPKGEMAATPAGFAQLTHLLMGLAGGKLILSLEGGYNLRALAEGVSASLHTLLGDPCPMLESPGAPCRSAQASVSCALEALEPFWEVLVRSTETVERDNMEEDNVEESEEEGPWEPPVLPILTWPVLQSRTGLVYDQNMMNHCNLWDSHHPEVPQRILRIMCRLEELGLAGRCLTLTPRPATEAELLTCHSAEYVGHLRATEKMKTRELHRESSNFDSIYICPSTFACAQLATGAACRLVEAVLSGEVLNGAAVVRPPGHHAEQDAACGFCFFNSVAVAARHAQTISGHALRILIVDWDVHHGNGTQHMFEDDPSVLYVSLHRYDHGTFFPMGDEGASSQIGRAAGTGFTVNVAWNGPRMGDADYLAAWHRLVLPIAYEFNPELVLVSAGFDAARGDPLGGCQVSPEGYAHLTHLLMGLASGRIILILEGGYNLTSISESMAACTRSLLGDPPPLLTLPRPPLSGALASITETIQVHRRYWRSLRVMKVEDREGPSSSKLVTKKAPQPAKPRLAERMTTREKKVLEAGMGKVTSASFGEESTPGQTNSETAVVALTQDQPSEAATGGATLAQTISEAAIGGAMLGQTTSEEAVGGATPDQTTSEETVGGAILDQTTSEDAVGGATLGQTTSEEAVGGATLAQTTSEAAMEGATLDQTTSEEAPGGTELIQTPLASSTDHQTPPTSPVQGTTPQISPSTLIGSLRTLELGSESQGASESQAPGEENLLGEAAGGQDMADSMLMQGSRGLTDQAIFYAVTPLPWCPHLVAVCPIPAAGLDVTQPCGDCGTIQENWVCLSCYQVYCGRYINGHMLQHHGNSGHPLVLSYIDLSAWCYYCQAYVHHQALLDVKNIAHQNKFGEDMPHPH

Compound | IC50 [1] [nM] | EC50 [2] [nM] | Metabolic stability HLM % remaining in 30 min [3] [%] | Metabolic stability MLM % remaining in 30 min [4] [%]
O=C(NO)c1cnc(N2CCC(CN[C@@H]3C[C@H]3c3ccc(F)cc3)CC2)nc1 [Example 20, 2-(4-((((1R,2S)-2-(4-fluorophenyl)cyclopropyl)amino)methyl)piperidin-1-yl)-N-hydroxypyrimidine-5-carboxamide TFA Salt] | 72 | 3 | 91 | 69
O=C(NO)c1cnc(N2CCC(CN[C@H]3C[C@@H]3c3ccc(F)cc3)CC2)nc1 [Example 21, 2-(4-((((1S,2R)-2-(4-fluorophenyl)cyclopropyl)amino)methyl)piperidin-1-yl)-N-hydroxypyrimidine-5-carboxamide TFA Salt] | 91 | 9 | 86 | 51
O=C(NO)c1ccc(CCCN2CCC(CNC3CC3c3cnn(-c4ccccc4)c3)CC2)cc1 (stereo not shown) [Example 68, N-hydroxy-4-(3-(4-(((2-(1-phenyl-1H-pyrazol-4-yl)cyclopropyl)amino)methyl)piperidin-1-yl)propyl)benzamide TFA Salt] | 104 |  |  | 
O=C(NO)c1ccc(CCCn2cnc(CNC3CC3c3ccc(F)c(F)c3)c2)cc1 (stereo not shown) [Example 73, 4-(3-(4-(((2-(3,4-difluorophenyl)cyclopropyl)amino)methyl)-1H-imidazol-1-yl)propyl)-N-hydroxybenzamide TFA Salt] |  | 540 | 52 | 53
O=C(NO)c1ccc(CC(=O)N2CCC(CNC3CC3c3ccccc3)CC2)cc1 (stereo not shown) [Example 84, N-hydroxy-4-(2-oxo-2-(4-(((2-phenylcyclopropyl)amino)methyl)piperidin-1-yl)ethyl)benzamide TFA Salt] | 45 | 112 | 78 | 40
O=C(NO)c1ccc(CC(=O)N2CCC(CN[C@@H]3C[C@H]3c3ccccc3)CC2)cc1 [Example 84A, N-hydroxy-4-(2-oxo-2-(4-((((1R,2S)-2-phenylcyclopropyl)amino)methyl)piperidin-1-yl)ethyl)benzamide TFA Salt] | 22 | 26 | 78 | 41
O=C(NO)c1ccc(CC(=O)N2CCC(CN[C@H]3C[C@@H]3c3ccccc3)CC2)cc1 [Example 84B, N-hydroxy-4-(2-oxo-2-(4-((((1S,2R)-2-phenylcyclopropyl)amino)methyl)piperidin-1-yl)ethyl)benzamide TFA Salt] | 25 | 259 | 75 | 45
O=C(NO)c1ccc(CCS(=O)(=O)N2CCC(CNC3CC3c3ccccc3)CC2)cc1 (stereo not shown) [Example 88, N-hydroxy-4-(2-((4-(((2-phenylcyclopropyl)amino)methyl)piperidin-1-yl)sulfonyl)ethyl)benzamide TFA Salt] | 77 |  |  | 
O=C(NO)c1ccc(CN2CCN(C(=O)CNC3CC3c3ccccc3)CC2)cc1 (stereo not shown) [Example 91, N-hydroxy-4-((4-(2-((2-phenylcyclopropyl)amino)acetyl)piperazin-1-yl)methyl)benzamide TFA Salt] |  | 468 | 85 | 79
O=C(NO)c1ccc(CCC(=O)N2CCN(C(=O)CNC3CC3c3ccccc3)CC2)cc1 (stereo not shown) [Example 92, N-hydroxy-4-(3-oxo-3-(4-(2-((2-phenylcyclopropyl)amino)acetyl)piperazin-1-yl)propyl)benzamide TFA Salt] |  | 1400 | 95 | 91
O=C(NO)c1ccc(OCCCN2CCC(CNC3CC3c3ccccc3)CC2)cc1 (stereo not shown) [Example 100, N-hydroxy-4-(3-(4-(((2-phenylcyclopropyl)amino)methyl)piperidin-1-yl)propoxy)benzamide TFA Salt] |  | 17 | 63 | 57
O=C(NO)c1ccc(OCCCNC2CC2c2ccccc2)cc1 (stereo not shown) [Example 101, N-hydroxy-4-(3-((2-phenylcyclopropyl)amino)propoxy)benzamide TFA Salt] |  | 29 | 59 | 29
O=C(NO)c1cc2c(s1)CCN(C(=O)CNC1CC1c1ccc(F)cc1)C2 (stereo not shown) [Example 103, 5-(2-((2-(4-fluorophenyl)cyclopropyl)amino)acetyl)-N-hydroxy-4,5,6,7-tetrahydrothieno [3,2-c]pyridine-2-carboxamide TFA Salt] | 41 | 45 | 85 | 53
O=C(NO)c1cc2c(s1)CCN(C(=O)CN[C@@H]1C[C@H]1c1ccc(F)cc1)C2 [Example 103A, 5-(2-(((1R,2S)-2-(4-fluorophenyl)cyclopropyl)amino)acetyl)-N-hydroxy-4,5,6,7-tetrahydrothieno[3,2-c]pyridine-2-carboxamide TFA Salt] | 22 | 52 | 87 | 68
O=C(NO)c1cc2c(s1)CCN(C(=O)CN[C@H]1C[C@@H]1c1ccc(F)cc1)C2 [Example 103B, 5-(2-(((1S,2R)-2-(4-fluorophenyl)cyclopropyl)amino)acetyl)-N-hydroxy-4,5,6,7-tetrahydrothieno[3,2-c]pyridine-2-carboxamide TFA Salt] | 36 | 15 | 76 | 73
O=C(NO)c1ccc2c(c1)CN(C(=O)CNC1CC1c1ccc(F)cc1)CC2 (stereo not shown) [Example 104, 2-(2-((2-(4-fluorophenyl)cyclopropyl)amino)acetyl)-N-hydroxy-1,2,3,4-tetrahydroisoquinoline-7-carboxamide TFA Salt] | 32 | 269 | 80 | 77
O=C(NO)c1ccc2c(c1)CN(C(=O)CN[C@H]1C[C@@H]1c1ccc(F)cc1)CC2 [Example 104A, 2-(2-(((1S,2R)-2-(4-fluorophenyl)cyclopropyl)amino)acetyl)-N-hydroxy-1,2,3,4-tetrahydroisoquinoline-7-carboxamide TFA Salt] | 53 | 183 | 74 | 68
O=C(NO)c1ccc2c(c1)CN(C(=O)CN[C@@H]1C[C@H]1c1ccc(F)cc1)CC2 [Example 104B, 2-(2-(((1R,2S)-2-(4-fluorophenyl)cyclopropyl)amino)acetyl)-N-hydroxy-1,2,3,4-tetrahydroisoquinoline-7-carboxamide TFA Salt] | 45 | 374 | 74 | 70
O=C(NO)c1ccc2c(c1)CN(C(=O)CCCNC1CC1c1ccc(F)cc1)C2 (stereo not shown) [Example 108, 2-(4-((2-(4-fluorophenyl)cyclopropyl)amino)butanoyl)-N-hydroxyisoindoline-5-carboxamide TFA Salt] |  | 584 | > 95 | 85
Nc1ccccc1NC(=O)c1ccc(CCCN2CCC(CNC3CC3c3ccccc3)CC2)cc1 (stereo not shown) [Example 121, N-(2-aminophenyl)-4-(3-(4-(((2-phenylcyclopropyl)amino)methyl)piperidin-1-yl)propyl)benzamide TFA Salt] |  | 3 | 36 | 42
Nc1ccccc1NC(=O)c1ccc(CCCN2CCC(CNC3CC3c3ccc(F)cc3)CC2)cc1 (stereo not shown) [Example 122, N-(2-aminophenyl)-4-(3-(4-(((2-(4-fluorophenyl)cyclopropyl)amino)methyl)piperidin-1-yl)propyl)benzamide TFA Salt] |  | 15 | 77 | 72
COc1ccc(C2CC2NCC2CCN(CCCc3ccc(C(=O)Nc4ccccc4N)cc3)CC2)cc1 (stereo not shown) [Example 123, N-(2-aminophenyl)-4-(3-(4-(((2-(4methoxyphenyl)cyclopropyl)amino)methyl)piperidin-1-yl)propyl)benzamide TFA Salt] |  | 9 | 82 | 72
Nc1ccccc1NC(=O)c1ccc(CCCN2CCC(CNC3CC3c3ccc(F)c(F)c3)CC2)cc1 (stereo not shown) [Example 124, N-(2-aminophenyl)-4-(3-(4-(((2-(3,4-difluorophenyl)cyclopropyl)amino)methyl)piperidin-1-yl)propyl)benzamide TFA Salt] |  | 14 | 73 | 68
Nc1ccccc1NC(=O)c1ccc(CCCN2CCC(CNC3CC3c3cnn(-c4ccccc4)c3)CC2)cc1 (stereo not shown) [Example 129, N-(2-aminophenyl)-4-(3-(4-(((2-(1-phenyl-1H-pyrazol-4-yl)cyclopropyl)amino)methyl)piperidin-1-yl)propyl)benzamide TFA Salt] | > 10000 |  |  | 
Nc1ccccc1NC(=O)c1ccc(CCN2CCC(CNC3CC3c3ccccc3)CC2)cc1 (stereo not shown) [Example 139, N-(2-aminophenyl)-4-(2-(4-(((2-phenylcyclopropyl)amino)methyl)piperidin-1-yl)ethyl)benzamide TFA Salt] | > 10000 |  |  | 
Nc1ccccc1NC(=O)c1cnc(CCCN2CCC(CNC3CC3c3ccccc3)CC2)s1 (stereo not shown) [Example 154, N-(2-aminophenyl)-2-(3-(4-(((2-phenylcyclopropyl)amino)methyl)piperidin-1-yl)propyl)thiazole-5-carboxamide TFA Salt] | > 10000 |  |  | 
